Columns and labels:
[1] = test system: mouse CCL5 secretion by BV-2 cell line; assay: CCL5 secretion by LPS/IFN-γ-activated BV-2 cells (ELISA); format: cell-based
Method: (§1) Step 1: BV-2 cells in the exponential growth phase were collected, and viable cells were counted using a Vi-Cell XR cell counter. The cell suspension was adjusted to an appropriate concentration with the culture medium. 160 μL of cell suspension was added to each well of a 96-well cell culture plate, resulting in a final cell concentration of 12,000 cells per well. The culture plate was incubated for 24 hours in a 37° C., 5% CO2 incubator.
(§2) Step 2: A 10 mM DMSO compound stock solution was diluted at a ratio of 1:4 using DMSO to prepare a series of 1000× test compound solutions. These 1000× test compound solutions were further diluted at a ratio of 1:100 using cell culture medium to prepare a series of 10× test compound solutions. Finally, the 96-well plate that had been plated with cells the day before was taken out. According to the experimental well plate loading design, 20 μL of the corresponding 10× solution was added to each well, with three duplicate wells for each drug concentration. The final concentrations of the test compounds used in the experiment (i.e., 1× solutions) have a range of 10, 2.5, 0.625, 0.156, 0.0391, 0.0098, and 0.0024 μM. The final DMSO concentration in each well was 0.1%.
(§3) After the compound was added, the 96-well plate was incubated for half an hour in the 37° C., 5% CO2 incubator.
After the pre-incubation was completed, 20 μL of culture medium containing 100 ng/mL LPS and 100 ng/mL IFN-γ (final concentrations of 10 ng/mL LPS and 10 ng/mL IFN-7) was added to each well to induce the activation of BV-2 cells. The culture plate was then incubated for 24 hours in the 37° C., 5% CO2 incubator. […]
(§4) Step 5 (NO and CCL5 detection): The CCL5 levels in the supernatant were detected using an ELISA kit (Mouse CCL5/RANTES DuoSet ELISA; R&D; DY478-05), following the instructions provided with the kit. The nitric oxide (NO) levels in the supernatant were detected using the Griess Reagent System (Promega; G2930), following the instructions provided with the kit.
(§5) Step 1: Firstly, the optical density values obtained from ELISA and Griess tests were used to plot a standard curve and calculate the absolute concentrations of each sample. The absolute concentration was then calibrated using the CTG fluorescence value corresponding to each sample to obtain the calibrated concentration. The formula for calculating the calibrated concentration was: calibrated concentration=absolute concentration/CTG fluorescence value of the same sample.
Step 2: Based on the calibrated concentration of each sample, the relative percentage of CCL5 or NO secretion (i.e., CCL5 production (%) or NO production (%)) at each test concentration relative to the blank (DMSO) group was calculated. […]

[2] = test system: NO secretion by BV-2 cell line; assay: NO secretion by LPS/IFN-γ-activated BV-2 cells (Griess Reagent System); format: cell-based, Mouse
Method: as §1, §2, §3
After the pre-incubation was completed, 20 μL of culture medium containing 100 ng/mL LPS and 100 ng/mL IFN-γ (final concentrations of 10 ng/mL LPS and 10 ng/mL IFN-7) was added to each well to induce the activation of BV-2 cells. The culture plate was then incubated for 24 hours in the 37° C., 5% CO2 incubator.
Step 3: After 24 hours of treatment with the compound, the culture plate was centrifuged at 1200 rpm for 5 minutes. The supernatant was pipetted into another plate, which was sealed with tinfoil and stored at −20° C. for future ELISA and Griess reagent system assays. The cell culture plate from which the supernatant had been removed was immediately used for cell proliferation assays using the CellTiter-Glo (CTG) method.
as §4, §5
Step 2: Based on the calibrated concentration of each sample, the relative percentage of CCL5 or NO secretion (i.e., CCL5 production (%) or NO production (%)) at each test concentration relative to the blank (DMSO) group was calculated. The formula for calculating the relative percentage was: relative percentage %=(calibrated concentration of the test concentration group)/(calibrated concentration of the blank group).
Step 3: Finally, the relative percentage of CCL5 secretion or the relative percentage of NO secretion was plotted against the logarithm of the compound concentration. […]

[3] = test system: STAT3 phosphorylation (p-STAT3/STAT3) in spinal cord; assay: EAE mouse model, STAT3 phosphorylation in spinal cord (Western blot); format: in vivo, C57BL/6 mice; conditions: for inhibition rate of STAT3 phosphorylation in spinal cord: day 28
[4] = 24 h co-incubation, up to 10 μM

IC50 ([1]; Mus musculus, BV-2, 24 h co-incubation): 863 nM
IC50 ([2]; Mus musculus, BV-2, 24 h co-incubation, read-out: IC50 on NO secretion by BV-2): 487 nM
SMILES: CN(c1ncnc2[nH]ccc12)[C@@H]1CCc2cc(C#N)nn2C1 [Compound I]
Maximum inhibition rate on CCL5 secretion by BV-2 [1, 4]: 80.29%
Maximum inhibition rate on NO secretion by BV-2 [2, 4]: 100%
inhibition rate of STAT3 phosphorylation in spinal cord ([3]; 10 mg/kg BID): 86%
inhibition rate of STAT3 phosphorylation in spinal cord ([3]; 20 mg/kg BID): 86%
STAT3 phosphorylation in spinal cord ([3]; all dose groups, day 28, 0.25 h after administration): significantly inhibited the level of STAT3 phosphorylation in spinal cord

From patent publication US20240238299A1, “USE OF PYRROLOPYRIMIDINE COMPOUND” (GUANGZHOU JOYO PHARMATECH CO., LTD, priority 2021, published 2024)
